Patent publication US7727993B2, “Administering adenosine A2A receptor antagonist to reduce or suppress side effects of parkinson's disease therapy” (Kyowa Hakko Kirin Co., Ltd., priority 2002, dated 2010)
“Also recorded” adds a separate entry of the source.

Experiments:
MPTP cynomologus monkeys = test: Chronic L-DOPA alone or with KW-6002 in drug-naive MPTP parkinsonian monkeys (Example 4); assay type: in vivo; conditions: L-DOPA alone group versus L-DOPA plus KW-6002 group; week 3 and 4; FIG. 8
Method: ANIMALS: 8 (eight) female drug-naïve cynomologus monkeys weighing between 3 and 5 kg were used. They were rendered parkinsonian by subcutaneous infusion of MPTP (0.5 mg daily) until development of an obvious parkinsonian Syndrome (akinesia, hunched posture and tremor associated with a disability score on our scale of 6 or more). The cumulative dose necessary was variable: from 3.5 to 23.5 mg. The animals were allowed to recover during at least one month except an animal who had to be treated earlier because of marked akinesia. They were scored at least once daily. The disability score remained stable throughout that period. […] The drug was administered orally with a special capsule handler. The animals in the KW-6002 group also received this compound (90 mg/kg) by the oral route. The animals were observed daily (from Monday to Friday) in their cages through a one-way screen and video recordings were made of significant events (abnormal behavior—dyskinesias). They were scored on disability scale and eventually dyskinesia rating scale, before and during the effect. The treatment with L-DOPA was continued for one month.

[1] = system: MPTP-treated common marmosets; test: L-DOPA induced dyskinesia in MPTP-treated marmosets primed with L-DOPA (Example 5); assay type: in vivo; conditions: L-DOPA 2.5 mg/kg oral
Method: METHODS: MPTP (Sigma-Aldrich, St. Louis, Mo., USA) was dissolved in physiological saline and administered at a dose of 2.0 mg/kg s.c. daily for 5 days. Then, MPTP 2 mg/kg were further administered approximately 3 weeks.
The dyskinesia of the animals was scored using the rating scale described in Table 4. […] The score was calculated as the L-DOPA pre value. On the next day the animals received vehicle for the vehicle control value. […] Animals were assessed for dyskinesia on days 1, 3, 5, 7, 14, 21 and 28 according to the rating scale.
Abnormal movement such as, orofacial movements, myoclonus and complex stereotypic behaviors (e.g., elaborate checking, obsessive grooming), are exclude from dyskinesia rating.
Remarks According to Dyskinesia. Dystonia (arm, leg and trunk): abnormal sustained posture (ex. leg elevation). Stereotypic reaching (arm) Athetosis (arm and leg): writhing twisting movements. Chorea (arm and leg): abnormal rapid (dance like) movements of limbs. Akathisia: motor restlessness. Dyskinesia score is become higher according to severity of dyskinesia. The maximal score is four points.

[2] = system: chronically L-DOPA-treated 6-hydroxydopamine lesion rats; test: Abnormal involuntary movements (AIMs) scoring, L-DOPA induced dyskinesia (Example 3); assay type: in vivo, rat
Method: 6-hydroxydopamine (8 μg) was injected into the left medial forebrain bundle in a rat. One week after the lesion, the rats were then tested for contralateral turning by injecting apomorphine (0.1 mg/kg s.c.). Only those animals showing robust contralateral turning were used in subsequent experiments.
During the chronic treatment of L-DOPA, recording of severity scale of AIMs were carried out. In addition, an amplitude-based scale for each limb and axial AIMs was scored during a microdialysis study. Amplitude scores of limb or axial AIMs (each ranging from 0 to 4) was rated based on both the magnitude of paw/limb translocation and of the visible involvement of distal versus proximal muscle groups or on the lateral deviation (or torsion) of an animal's neck and trunk from the longitudinal axis of its body, respectively.

[3] = system: 6-hydroxydopamine lesion rats; test: In vivo microdialysis of GABA and glutamate in substantia nigra pars reticulata (Example 3); design: species or system rat
Method: GABA and glutamate concentrations in an output nucleus of basal ganglia, substantia nigra pars reticulata (SNr), are measured in the 6-hydroxydopamine lesion rats and the chronically L-DOPA-treated rats after 6-hydroxydopamine lesion. Effect of adenosine A2A receptor selective antagonists on GABA and glutamate levels in SNr and dyskinesias was examined. 6-hydroxydopamine (8 μg) was injected into the left medial forebrain bundle in a rat. One week after the lesion, the rats were then tested for contralateral turning by injecting apomorphine (0.1 mg/kg s.c.). Only those animals showing robust contralateral turning were used in subsequent experiments. […] Rats were placed in each test chamber and the microdialysis probe inserted into SNr was attached to a fluid swivel (TCS2-23, Eicom) that allowed free movement (also sustained rotational behavior). Probes were continuously perfused with a modified Ringer's solution (1.2 mmol/L CaCl2, 2.7 mmol/L KCl, 148 mmol/L NaCl, and 0.85 mmol/L MgCl2; pH 7, artificial cerebrospinal fluid solution) at a rate of 2 μL/min via a microinjection pump (CMA/100, Carnegie […] AB). After stabilization of basal level of release for 3-4 h, 4 samples (60 μL each) during 2 h of perfusion were collected using a fraction collector (CMA/140, Carnegie […]). […] The samples were immediately assayed or frozen and stored in a deep freeze (-80° C.) before assays. GABA and glutamate were analyzed using reverse phase high-performance liquid chromatograph with fluorescence detection after pre-column derivatization of the amino acids with orthophthaldialdehyde reagent. Lindroth and Mopper (1979).

[4] = L-DOPA treatment 2 weeks after 6-hydroxydopamine lesion
[5] = L-DOPA treatment 3 weeks after 6-hydroxydopamine lesion

`N[C@@H](Cc1ccc(O)c(O)c1)C(=O)O` [L-DOPA] was tested, and the level of dyskinesia (MPTP cynomologus monkeys) was “reached a higher level”, the “dyskinesias induced by L-DOPA” value [1] was “mild dyskinesias” and the “average maximum AIM scores” value ([2]; 2 to 3 weeks chronic L-DOPA, from 10 min to 3 hrs after L-DOPA administration) was 9. The “AIMs (sum of the amplitude score of limb and axial AIMs)” value ([2]; chronically L-DOPA-treated rats, FIG. 4) was “marked AIMs”, the “nigral GABA level” value ([3]; 6-hydroxydopamine lesion rats, change from pre-value, KW-6002 1 mg/kg p.o., FIG. 2A, 3A) was “facilitation; also recorded: significant increases” and the nigral glutamate level ([3]; 6-hydroxydopamine lesion rats, change from pre-value, KW-6002 1 mg/kg p.o., FIG. 2B, 3B) was “facilitation; also recorded: significant increases”. The “basal level of nigral GABA” value ([3]; L-DOPA treatment 1 week (20 mg/kg orally twice a day) after 6-hydroxydopamine lesion) was 19.3 ± 2.3 nmol/L, the “basal level of nigral glutamate” value ([3]; L-DOPA treatment 1 week after 6-hydroxydopamine lesion) was 147.5 ± 38.1 nmol/L and the “basal level of nigral GABA” value [3, 4] was 20.9 ± 6.8 nmol/L. The “basal level of nigral glutamate” value [3, 4] was 112.0 ± 47.1 nmol/L, the “basal level of nigral GABA” value [3, 5] was 23.6 ± 4.5 nmol/L and the “basal level of nigral glutamate” value [3, 5] was 425.4 ± 99.6 nmol/L. The “nigral GABA levels after administration” value ([3]; chronically L-DOPA-treated 6-hydroxydopamine lesion rats, FIG. 5A) was “without effect”, the “nigral glutamate levels after administration” value ([3]; chronically L-DOPA-treated 6-hydroxydopamine lesion rats, FIG. 5B) was “increased” and the “basal nigral glutamate concentration during chronic L-DOPA (in words)” value ([3]; constant until 2 weeks) was “drastically increase in 3 weeks”. The “basal nigral GABA levels during chronic L-DOPA (in words)” value ([3]; throughout 1 to 3 weeks) was “maintained unchanged”.
